Source: patent publication US20240390327A1, “THERAPEUTIC COMPOSITIONS AND METHODS” (Johns Hopkins University, priority 2021, published 2024)
“Also recorded” adds a separate entry of the source.

How the values were obtained:
[1] = test system: CAM-IVH rats; experiment: Intra-aural distance (macrocephaly) in CAM-IVH model of PHHP; assay type: in vivo, rat; settings: treatment P2-P10, followed through P21
Description: For each experiment with a statistical analysis, a power analysis was performed to estimate the required sample size (G*Power 3.1.9.3). We used preliminary and published data to estimate means and standard deviations for each group for the primary outcomes of intra-aural distance, ventriculomegaly, neurodevelopmental assessment, qPCR, and DTI analyses (Farkas et al., 2009; Yung et al., 2011; Baharnoori et al., 2012; Jantzie et al., 2014a,b, 2018; Robinson et al., 2016). Scanning electron microscopy qualitative analysis of EMC was set a priori as two per group. Primary endpoints were set a priori as described in the text, and were daily (P4-P15 and P21) for IAD and neurodevelopment, P5 for ventriculomegaly, P15 for periventricular YAP mRNA, and P21 for remaining assays. No animals were individually excluded except, as noted in the text, those who were removed prior to P21 due to poor health. DTI images from one rat were excluded due to poor image acquisition quality prior to quantification. Rats from both institutions and at least two separate litters were used for all experiments, except rats for SEM were prepared at one institution. Rats from both sexes were randomly assigned to injury (CAM versus sham at E18, IVH versus vehicle at P1) and to treatment group (EPO+MLT or vehicle on P2 for CAM-IVH rats). […]

[2] = test system: rats with prenatal injury (TSHI plus intra-amniotic LPS); experiment: Open field after prenatal injury (chorioamnionitis model of cerebral palsy); assay type: in vivo, rat; settings: P28-P30 open field
Description: As placental structure and function is of significant clinical importance to neurologic sequelae in preterm survivors (59-61), we use a prenatal model of in utero transient systemic HI (TSHI) and intra-amniotic lipopolysaccharide (LPS) administration in pregnant rats (62-64). This approach capitalizes on an intact maternal-placental-fetal unit and is a model of PBI from extreme preterm birth (<28 weeks of gestation) that mimics dual intrauterine injury from placental underperfusion and chorioamnionitis (65). Briefly, under isoflurane anesthesia, a laparotomy is performed on embryonic day (E) 18. Uterine arteries are clamped for 60 min and followed by intra-amniotic injections of LPS (4 μg/sac; 0111:B4, Sigma, St. Louis, MO, USA) (62, 64, 65). Sham controls undergo anesthesia and laparotomy for 60 min without arterial clamping or LPS injections. Following closure of the laparotomy, dams receive narcotic pain medication, recover, and pups are born vaginally at E22, approximately equal to 30-32 weeks in human gestation. We have previously reported the effects of TSHI and LPS alone, and in concert, on CNS pathological hallmarks, functional motor outcomes, histologic placental injury, and expression of common pro-inflammatory cytokines (63, 64).
When EPO was administered in isolation, it was given from P1 to P5 at 2,000 U/kg/dose as previously published (47, 48, 54, 55, 71, 72). […]

[3] = test system: patients (adult traumatic brain injury; pediatric and neonatal trials); settings: cited from earlier work
[4] = test system: naïve rats; experiment: EPO+MLT regimen in naïve neonatal rats, unanticipated effects; assay type: in vivo, rat; settings: doses administered the same time of day
Description: To test if EPO+MLT could prevent the onset of PHHP, on P2 CAM+IVH rats were randomized to receive either EPO+MLT or vehicle from P2 (equivalent to approximately 32 weeks human gestation) to P10 (full term in humans). Six doses of EPO (2500 U/kg/dose i.p.) or vehicle were administered on P2-P5, P7 and P9. Nine doses of MLT (20 mg/kg/dose i.p.) or vehicle were administered on P2-P10. A subset of 36 CAM-IVH pups were randomized to receive vehicle, EPO alone, MLT alone, or EPO+MLT to test impact of treatment on macrocephaly. […] To determine if EPO+MLT had any unanticipated effect on normal neurodevelopment, a set of naïve pups underwent EPO+MLT treatment.
Neurodevelopmental battery included nine tests (surface righting, negative geotaxis, cliff aversion, forelimb grasp, audio startle, eye opening, ear twitch, forelimb placement, and air righting) (Farkas et al., 2009; Bahamoori et al., 2012). Since no differences with audio startle or eye opening were noted across groups, these two tests were not included for naïve rats. Observers blinded to injury and treatment group tested 146 rats each day from P4 to P15, and then at P21.
To determine if the progressive macrocephaly and poor cliff aversion performance observed in CAM-IVH rats was preventable, we assessed the efficacy of combined EPO+MLT treatment in the neonatal period in a separate cohort of rats (n=88). […]

[5] = test system: rats with PCL syndrome (LPS plus Poly IC); experiment: Nociception (mechanical allodynia, thermal hypersensitivity) in Post-COVID Like (PCL) model; assay type: in vivo, rat; settings: chronic pain lasting greater than 2 months
Description: LPS (3 mg/kg ip) is given to prime the immune system of rats on postnatal (P) 45, 46 and P47. Subsequently, Poly IC (2, 3, or 5 mg/kg ip) is given on P55 to mimic a viral exposure. The response to these stimuli are studied in the following acute, subacute and chronic timepoints. Pain and activity in an open field are outcome measures we use routinely to track the development of the PCL syndrome.
For experimental design and development of pel syndrome with cognitive assessment, LPS (3 mg/kg ip) is given to prime the immune system of rats on postnatal (P) 45, 46 and P47. Subsequently, Poly IC (5 mg/kg ip) is given on P55 to mimic a viral exposure. The response to these stimuli are studied in the following acute, subacute and chronic timepoints. Pain and Activity in an Open Field are outcome measures we use routinely to track the development of the PCL syndrome. Similarly, Touchscreen cognitive assessment occurs simultaneously throughout the Acute, SubAcute and Chronic Phases. Using a touchscreen assessment platform, we first assess visual discrimination. We then assess cognitive flexibility through a test of reversal learning, and then a test of attention called 5 choice serial reaction (5CSRTT).
After priming the immune system with systemic lipopolysaccharide (LPS) on postnatal day 45-47, rats receive the viral mimetic poly(I:C) on P55.

[6] = test system: rats with PCL syndrome; experiment: Diffusion tensor imaging in PCL model; assay type: in vivo, rat; settings: 11.7T MRI
Description: Diffusion Tensor Imaging was performed on an 11.7T Bruker MRI scanner. These images were processed to assign directional colors ([…] transverse, blue vertical, and green orthogonal to the plane).

[7] = test system: PBMCs; experiment: PBMC secretome after buprenorphine stimulation in culture; settings: P21 PBMCs, 3 h culture; EPO 10 U/mL + MLT 20 μM; naloxone 10 μM

Compound | intra-aural distance (IAD), progressive macrocephaly [1] | disinhibition (open field) [2] | adverse events in pediatric and neonatal EPO trials ([3]; high-dose, extended EPO regimens) | adverse events in meta-analyses of EPO for severe adult traumatic brain injury ([3]; versus placebo) | impact on the circadian rhythm [4] | chronic thermal hypersensitivity [5] | white matter microstructural integrity (directional color DTI) [6] | secretion of interferon gamma and IL-6 by PBMCs treated with buprenorphine [7]
EPO: erythropoietin compound or erythropoietin, in particular human recombinant erythropoietin | the IADs were not significantly different compared littermates that received vehicle | does not; also recorded: did not improve disinhibition | no adverse events have emerged with high-dose, extended EPO regimens in neonatal trials | no adverse events were evident compared to placebo treatment |  |  |  | 
COc1ccc2[nH]cc(CCNC(C)=O)c2c1 [MLT, N-acetyl-5-methoxytryptamine] | the IADs were not significantly different compared littermates that received vehicle |  |  |  | no impact was evident | neither ROX nor MLT alone | the microstructural integrity is altered and the colors are muted | 
C=CCN1CC[C@]23c4c5ccc(O)c4O[C@H]2C(=O)CC[C@@]3(O)[C@H]1C5 [naloxone] |  |  |  |  |  |  |  | blocked the secretion of these proinflammatory mediators
